These results are taken from patent publication US8076325B2, “1,2,4,5-tetrahydro-3H-benzazepine compounds, a process for their preparation and pharmaceutical compositions containing them” (Les Laboratoires Servier, priority 2007, dated 2011).

Counter-ions that a name gives are not always drawn. Like-named read-outs stand apart in the source and are kept apart here.

The test concerns spontaneously beating right atrium. Nature of the test: Effect of compounds on the spontaneous beating rate of the right atrium in the rat.
Where [1] appears, read: Rattus norvegicus, 0.25 h, concentration that reduces the initial spontaneous beating rate by 30%, isolated right atrium of male WISTAR rats, 35° C., compound added cumulatively every 15 minutes (4 concentrations), read-out: IC30.
Setting [2] is: concentration that reduces the initial spontaneous beating rate by 30%, isolated right atrium of male WISTAR rats, 35° C., compound added cumulatively every 15 minutes (4 concentrations), read-out: IC30.

Experimental: Male WISTAR rats weighing from 325 to 375 g are anaesthetised by ip injection of pentobarbital sodium (30 mg/kg). The heart is rapidly excised and placed in a physiological solution at 4° C. which contains (in mM): NaCl 120.3, KCl 4.8, CaCl2 2.5, KH2PO4 1.0, MgSO4 1.3, NaHCO3 24.2, glucose 11.1, Ca-EDTA 0.016, and which is oxygenated (carbogene 95% O2+5% CO2), pH 7.4. The right atrium (RA), which beats spontaneously, is isolated, placed in a basin, thermostatically controlled at 35° C., containing 20 ml of physiological solution and connected to an isometric tension sensor (model IT-25, EMKA Technologies, Paris, France). The initial tension is set at 0.4 g. The spontaneous beating rate is measured by IOX software (EMKA Technologies, Paris, France). Preparations whose spontaneous beating rate is not between 200 and 300 beats per minute are excluded.
The compounds are dissolved daily at 10^−2M. The following dilutions are stored in ice over the duration of the experiment.
After stabilisation for 30 minutes, the compound under test is added to the medium in cumulative manner every 15 minutes (4 concentrations). The reductions in beating rate are expressed as a percentage relative to the initial rate. The concentration that reduces the initial beating rate by 30% (IC30) is calculated and expressed in terms of molarity (μM).

As usually defined, the IC30 is the point of the concentration-response curve where the effect stands at 30%. In the case of `COc1cc2c(cc1OC)CCN(C(=O)CCN(C[C@H]1Cc3cc(OC)c(OC)cc31)C1CCCC1)CC2` [Example 27, N-Cyclopentyl-N-{[(7S)-3,4-dimethoxybicyclo[4.2.0]octa-1,3,5-trien-7-yl]methyl}-3-(7,8-dimethoxy-1,2,4,5-tetrahydro-3H-3-benzazepin-3-yl)-3-oxopropan-1-amine fumarate], under setting [1], the IC30 is 1200 nM. For `CNC(=O)Oc1ccc2c(c1)CC2CN(C)CCC(=O)N1CCc2cc(OC)c(OC)cc2CC1` (stereo not shown) [Example 44, 7-{[[3-(7,8-Dimethoxy-1,2,4,5-tetrahydro-3H-3-benzazepin-3-yl)-3-oxopropyl](methyl)amino]methyl}bicyclo[4.2.0]octa-1,3,5-trien-3-yl methylcarbamate hydrochloride], the 30% effect concentration (IC30) (Rattus norvegicus, 0.25 h) came to 800 nM. Same read-out and setting: to `CCN(CC)C(=O)Oc1ccc2c(c1)CC2CN(C)CCC(=O)N1CCc2cc(OC)c(OC)cc2CC1` (stereo not shown) [Example 71, 7-{[[3-(7,8-Dimethoxy-1,2,4,5-tetrahydro-3H-3-benzazepin-3-yl)-3-oxopropyl](methyl)amino]methyl}bicyclo[4.2.0]octa-1,3,5-trien-3-yl diethylcarbamate hydrochloride] belongs 1800 nM.

`COc1cc2c(cc1OC)CCN(C(=O)CCN(C)C[C@H]1Cc3cc(OC)c(OC)cc31)CC2` [Example 3a, N-{[(7S)-3,4-Dimethoxybicyclo[4.2.0]octa-1,3,5-trien-7-yl]methyl}-3-(7,8-dimethoxy-1,2,4,5-tetrahydro-3H-3-benzazepin-3-yl)-N-methyl-3-oxopropan-1-amine hydrochloride]: under setting [1], the concentration for an effect of 30% (IC30) was 1300 nM.

`COc1ccc2c(c1)CCN(C(=O)CCN(C)C[C@H]1Cc3cc(OC)c(OC)cc31)CC2` [Example 34, N-{[(7S)-3,4-Dimethoxybicyclo[4.2.0]octa-1,3,5-trien-7-yl]methyl}-3-(7-methoxy-1,2,4,5-tetrahydro-3H-3-benzazepin-3-yl)-N-methyl-3-oxopropan-1-amine hydrochloride]: the 30% effect concentration (IC30) under setting [1] worked out at 1300 nM. Take `COc1cc2c(cc1C)CC2CN(C)CCC(=O)N1CCc2cc(OC)c(OC)cc2CC1` (stereo not shown) [Example 76, 3-(7,8-Dimethoxy-1,2,4,5-tetrahydro-3H-3-benzazepin-3-yl)-N-{[4-methoxy-3-methyl-bicyclo[4.2.0]octa-1,3,5-trien-7-yl]methyl}-N-methyl-3-oxopropan-1-amine hydrochloride]: the concentration for an effect of 30% (IC30) under setting [1] stood at 1600 nM. For the molecule `COc1cc2c(cc1OC)CCN(C(=O)CCN(C)CC1Cc3cc(OC)c(OC)cc3C1)CC2` [Example 7, N-[(5,6-Dimethoxy-2,3-dihydro-1H-inden-2-yl)methyl]-3-(7,8-dimethoxy-1,2,4,5-tetrahydro-3H-3-benzazepin-3-yl)-N-methyl-3-oxopropan-1-amine hydrochloride], under setting [1], the concentration for an effect of 30% (IC30) amounted to 1700 nM.

Under “Rattus norvegicus, 0.25 h”, `CNC(=O)Oc1ccc2c(c1)C(CN(C)CCC(=O)N1CCc3cc(OC)c(OC)cc3CC1)C2` (stereo not shown) [Example 46, 8-{[[3-(7,8-Dimethoxy-1,2,4,5-tetrahydro-3H-3-benzazepin-3-yl)-3-oxopropyl](methyl)amino]methyl}bicyclo[4.2.0]octa-1,3,5-trien-3-yl methylcarbamate hydrochloride] registered a 30% effect concentration (IC30) of 500 nM.

For the molecule `C=CCN(CCC(=O)N1CCc2cc(OC)c(OC)cc2CC1)C[C@H]1Cc2cc(OC)c(OC)cc21` [Example 23, N-Allyl-N-{[(7S)-3,4-dimethoxybicyclo[4.2.0]octa-1,3,5-trien-7-yl]methyl}-3-(7,8-dimethoxy-1,2,4,5-tetrahydro-3H-3-benzazepin-3-yl)-3-oxopropan-1-amine hydrochloride], the IC30 under setting [1] amounted to 1400 nM. As to `COc1cc2c(cc1OC)CCN(C(=O)CCN(CC1CC1)C[C@H]1Cc3cc(OC)c(OC)cc31)CC2` [Example 22, N-(Cyclopropylmethyl)-N-{[(7S)-3,4-dimethoxybicyclo[4.2.0]octa-1,3,5-trien-7-yl]methyl}-3-(7,8-dimethoxy-1,2,4,5-tetrahydro-3H-3-benzazepin-3-yl)-3-oxopropan-1-amine hydrochloride], the IC30 under setting [1] was determined as 800 nM. In turn, `COc1cc2c(cc1OC)CCN(C(=O)CCN(C)CC1Cc3cc(OC(=O)N(C)C)ccc31)CC2` (stereo not shown) [Example 47, 7-{[[3-(7,8-Dimethoxy-1,2,4,5-tetrahydro-3H-3-benzazepin-3-yl)-3-oxopropyl](methyl)amino]methyl}bicyclo[4.2.0]octa-1,3,5-trien-3-yl dimethylcarbamate hydrochloride] had an IC30 (Rattus norvegicus, 0.25 h) of 600 nM.

`COc1cc2c(cc1OC)CCN(C(=O)CCN(C)CC1Cc3ccc(OC(=O)N(C)C)cc31)CC2` (stereo not shown) [Example 50, 8-{[[3-(7,8-Dimethoxy-1,2,4,5-tetrahydro-3H-3-benzazepin-3-yl)-3-oxopropyl](methyl)amino]methyl}bicyclo[4.2.0]octa-1,3,5-trien-3-yl dimethylcarbamate hydrochloride] registered a concentration for an effect of 30% (IC30) (Rattus norvegicus, 0.25 h) of 500 nM. Turning to `COc1cc2c(cc1OC)CCN(C(=O)CCNC[C@H]1Cc3cc(OC)c(OC)cc31)CC2` [Example 4, N-{[(7S)-3,4-Dimethoxybicyclo[4.2.0]octa-1,3,5-trien-7-yl]methyl}-3-(7,8-dimethoxy-1,2,4,5-tetrahydro-3H-3-benzazepin-3-yl)-3-oxopropan-1-amine hydrochloride], the concentration for an effect of 30% (IC30) under setting [1] was 1400 nM.

Regarding `COc1cc2c(cc1OC)CCN(C(=O)CCN(CC1CCC1)C[C@H]1Cc3cc(OC)c(OC)cc31)CC2` [Example 29, N-(Cyclobutylmethyl)-N-{[(7S)-3,4-dimethoxybicyclo[4.2.0]octa-1,3,5-trien-7-yl]methyl}-3-(7,8-dimethoxy-1,2,4,5-tetrahydro-3H-3-benzazepin-3-yl)-3-oxopropan-1-amine fumarate], under setting [1], the IC30 was found to be 400 nM. Under “Rattus norvegicus, 0.25 h”, `COc1cc2c(cc1OC)CCN(C(=O)CCNCC1Cc3cc(OC(=O)N(C)C)ccc31)CC2` (stereo not shown) [Example 54, 7-{[[3-(7,8-Dimethoxy-1,2,4,5-tetrahydro-3H-3-benzazepin-3-yl)-3-oxopropyl]amino]methyl}bicyclo[4.2.0]octa-1,3,5-trien-3-yl dimethylcarbamate hydrochloride] returned an IC30 of 800 nM. Turning to `CCOc1ccc2c(c1)CC2CNCCC(=O)N1CCc2cc(OC)c(OC)cc2CC1` (stereo not shown) [Example 14, 3-(7,8-Dimethoxy-1,2,4,5-tetrahydro-3H-3-benzazepin-3-yl)-N-[(3-ethoxybicyclo[4.2.0]octa-1,3,5-trien-7-yl)methyl]-3-oxopropan-1-amine hydrochloride], the IC30 under setting [1] stood at 1000 nM. Still for that read-out and setting: to `COc1cc2c(cc1C)C(CN(C)CCC(=O)N1CCc3cc(OC)c(OC)cc3CC1)C2` (stereo not shown) [Example 74, 3-(7,8-Dimethoxy-1,2,4,5-tetrahydro-3H-3-benzazepin-3-yl)-N-{[3-methoxy-4-methyl-bicyclo[4.2.0]octa-1,3,5-trien-7-yl]methyl}-N-methyl-3-oxopropan-1-amine hydrochloride] belongs 1000 nM. Same read-out and setting: to `COc1cc2c(cc1OC)CCN(C(=O)CCN(CC1CCCC1)C[C@H]1Cc3cc(OC)c(OC)cc31)CC2` [Example 28, N-(Cyclopentylmethyl)-N-{[(7S)-3,4-dimethoxybicyclo[4.2.0]octa-1,3,5-trien-7-yl]methyl}-3-(7,8-dimethoxy-1,2,4,5-tetrahydro-3H-3-benzazepin-3-yl)-3-oxopropan-1-amine hydrochloride] belongs 1200 nM. For `COc1cc2c(cc1OC)CCN(C(=O)CCNCC1Cc3ccc(OC(=O)N(C)C)cc31)CC2` (stereo not shown) [Example 53, 8-{[[3-(7,8-Dimethoxy-1,2,4,5-tetrahydro-3H-3-benzazepin-3-yl)-3-oxopropyl]amino]methyl}bicyclo[4.2.0]octa-1,3,5-trien-3-yl dimethylcarbamate hydrochloride], under “Rattus norvegicus, 0.25 h”, the IC30 is 1800 nM. Regarding `COc1cc2c(cc1OC)CCN(C(=O)CCN(C)CC1Cc3cc(OC(=O)N(C)C)ccc31)CC2.Cl` (single isomer, unassigned; (-)) [Example 48, (−) enantiomer of 7-{[[3-(7,8-dimethoxy-1,2,4,5-tetrahydro-3H-3-benzazepin-3-yl)-3-oxopropyl](methyl)amino]methyl}bicyclo[4.2.0]octa-1,3,5-trien-3-yl dimethylcarbamate hydrochloride], the IC30 under setting [2] was found to be 500 nM. The same measure, in the same setting: to “7-({[3-(7,8-Dimethoxy-1,2,4,5-tetrahydro-3H-3-benzazepin-3-yl)-3-oxopropyl](methyl)amino}methyl)bicyclo[4.2.0]octa-1,3,5-trien-3-yl hexahydrocyclopenta[c]pyrrole-2(1H)-carboxylate (cis compound) [Example 78]” belongs 2000 nM. In turn, `COc1cc2c(cc1OC)CCN(C(=O)CCN(C)CC1Cc3cc(OC(=O)N4CCCC4)ccc31)CC2` (stereo not shown) [Example 73, 7-{[[3-(7,8-Dimethoxy-1,2,4,5-tetrahydro-3H-3-benzazepin-3-yl)-3-oxopropyl](methyl)amino]methyl}bicyclo[4.2.0]octa-1,3,5-trien-3-yl 1-pyrrolidinecarboxylate hydrochloride] displayed an IC30 (Rattus norvegicus, 0.25 h) of 2400 nM.
